# Reference: patent US9221868B2, “Uridine di- or tri-phosphate derivatives and uses thereof” (BAR-ILAN UNIVERSITY, priority 2010, dated 2015)
# Key:
# P2Y2-R = P2Y2-R (Homo sapiens, UniProt P41231); test: [Ca2+]i increase in 1321N1 astrocytoma cells expressing P2Y2-R; assay type: cell-based; design: expressed in transfected cells; host or cells: 1321N1 astrocytoma cells; settings: 1321N1 astrocytoma cells, [Ca2+]i; n.d.r = no detectable response up to 100 μM
# Description: (§1) Green fluorescent protein (GFP) constructs of human P2Y2-R, P2Y4-R and P2Y6-R were expressed in 1321N1 astrocytoma cells, which lack endogenous expression of P2X- and P2Y-receptors. The respective cDNA of the receptor gene was cloned into a pEGFPN1 vector. After transfection using FuGENE 6 Transfection Reagent (Roche Molecular Biochemicals, Mannheim, Germany), the cells were selected with 0.5 mg/ml G418 (geneticine; Merck Chemicals, Darmstadt, Germany) and grown in Dulbecco's modified Eagles' medium (DMEM) supplemented with 10% fetal calf serum, 100 U/ml penicillin and […] at 37° C. and 5% CO2. The expression and cell membrane localization of the respective P2Y receptors was confirmed through the analysis of the GFP fluorescence. The functionality of the expressed GFP-labeled receptor in cells was verified by recording a change of [Ca^2+]i after stimulation with the appropriate receptor agonist.
# (§2) 1321N1 astrocytoma cells transfected with the respective plasmid for P2YR-GFP expression plated on coverslips (22 mm diameter) and grown to approximately 80% density were incubated with 2 μM fura 2/AM and 0.02% pluronic acid in Na-HBS buffer (Hepes buffered saline: 145 mM NaCl, 5.4 mM KCl, 1.8 mM CaCl2, 1 mM MgCl2, 25 mM glucose, 20 mM Hepes/Tris pH 7.4) for 30 min at 37° C. The cells were superfused (1 ml/min, 37° C.) with different concentrations of nucleotide in Na-HBS buffer, and the nucleotide-induced change of [Ca^2+]i was measured by detecting the respective emission intensity of fura 2/AM at 510 nm with after 340 nm and 380 nm excitations (Ubl et al., 1998). The average maximal amplitude of the responses and the respective standard errors were calculated from the ratio of the fura 2/AM fluorescence intensities with excitations at 340 nm and 380 nm (only MT-labeled cells were analysed). Microsoft Excel (Microsoft Corp., Redmond, Wash., USA) and SigmaPlot (SPSS Inc., Chicago, Ill., USA) were used to derive the concentration-response curves and EC50 values from the average response amplitudes obtained in at least three independent experiments (Ecke et al., 2006, 2008). Only cells with a clear MT-signal and with the typical calcium response kinetics upon agonist pulse application were included in the data analysis. The GFP-tagged P2Y receptors are suitable for pharmacological and physiological studies, as previously reported (Tulapurkar et al., 2004, 2006; Zylberg et al., 2007).
# (§3) In this study, analogues 13-17 were tested for their potency and selectivity at P2Y2,4,6-receptors based on measurements of increases in intracellular calcium concentrations in 1321N1 astrocytoma cells transfected with the respective plasmid, as described in Materials and Methods, and the results are summarized in Table 2.
# P2Y4-R = target: T1, P2Y4-R (Homo sapiens, UniProt P51582); test: [Ca2+]i increase in 1321N1 astrocytoma cells expressing P2Y4-R; assay type: cell-based; settings: n.d.r = no detectable response up to 100 μM
# T1 construct: expressed in transfected cells; host or cells: 1321N1 astrocytoma cells
# Description: as §1, §2, §3
# P2Y2-R, sequence (P41231 whole entry): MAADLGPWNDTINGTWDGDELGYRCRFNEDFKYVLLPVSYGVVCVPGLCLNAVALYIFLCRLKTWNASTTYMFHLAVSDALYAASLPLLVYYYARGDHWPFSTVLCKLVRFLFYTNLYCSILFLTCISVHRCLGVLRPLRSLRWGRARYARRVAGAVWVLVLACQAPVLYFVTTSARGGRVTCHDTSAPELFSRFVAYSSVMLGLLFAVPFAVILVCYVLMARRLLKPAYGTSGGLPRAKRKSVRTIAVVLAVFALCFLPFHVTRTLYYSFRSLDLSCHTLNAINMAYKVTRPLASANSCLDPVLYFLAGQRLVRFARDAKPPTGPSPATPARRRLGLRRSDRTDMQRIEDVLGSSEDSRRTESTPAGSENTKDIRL
# T1 sequence (P51582 whole entry): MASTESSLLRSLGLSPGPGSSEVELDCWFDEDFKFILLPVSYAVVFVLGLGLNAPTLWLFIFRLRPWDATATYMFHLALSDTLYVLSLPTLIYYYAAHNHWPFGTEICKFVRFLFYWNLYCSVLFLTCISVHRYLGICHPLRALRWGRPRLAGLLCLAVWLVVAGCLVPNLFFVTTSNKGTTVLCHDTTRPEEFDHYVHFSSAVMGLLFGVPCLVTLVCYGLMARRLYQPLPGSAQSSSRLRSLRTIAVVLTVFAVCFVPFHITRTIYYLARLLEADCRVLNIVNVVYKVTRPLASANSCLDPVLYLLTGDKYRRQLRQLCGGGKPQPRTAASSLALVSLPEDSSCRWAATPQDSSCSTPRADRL
smiles,measurement,setting,value
"[BH3-][P+](O)(OCC1OC(n2cc(OC)c(=O)[nH]c2=O)C(O)C1O)OP(=O)(O)O (single isomer, unassigned) [Analogue 13A, 5-methoxyuridine-5′-O-(α-boranodiphosphate)]",Potencies (EC50) at the P2Y2-R,P2Y2-R,n.d.r
same,Potencies (EC50) at the P2Y4-R,P2Y4-R,n.d.r
